# Patent US8546380B2, “Aminodihydrothiazine derivatives” (Shionogi & Co., Ltd., priority 2005, dated 2013)
# Target: recombinant human BACE-1 protein (Homo sapiens (Human), UniProt P56817)
# Test: Measurement of Inhibition of β-Secretase Activity
# Type: biochemical
# Conditions: not given
# Method: Zero point five μL of the test compounds (dissolved in N,N′-dimethylsulfoxide) were incubated with 48.5 μL of the fluorescence-quenched peptide substrate solution (Biotin-XSEVNLDAEFRHDSGC-Eu:X=ε-amino-n-capronic acid, Eu=Europium cryptate) and 1 μL of recombinant human BACE-1 protein (R&D systems) for 3 h at 30° C. in the 96 well half-area plate (black color plate, Costar). The substrate peptide was synthesized by reacting with Biotin-XSEVNLDAEFRHDSGC (Peptide Institute) and Cryptate TBPCOOH mono SMP (CIS bio international). […] The enzymatic reaction was performed in sodium acetate buffer (50 mM sodium acetate (pH5.0), 0.008% Triton X-100). After the reaction, a 50 μL of 8.0 μg/mL Streptavidin-XL665 (CIS bio international) dissolved in phosphate buffer (150 mM K2HPO4—KH2PO4 (pH 7.0), 0.008% Triton X-100, 0.8 M KF) was add to each well and incubated for 1 h at 30° C.
# Sequence of recombinant human BACE-1 protein (P56817 46-501): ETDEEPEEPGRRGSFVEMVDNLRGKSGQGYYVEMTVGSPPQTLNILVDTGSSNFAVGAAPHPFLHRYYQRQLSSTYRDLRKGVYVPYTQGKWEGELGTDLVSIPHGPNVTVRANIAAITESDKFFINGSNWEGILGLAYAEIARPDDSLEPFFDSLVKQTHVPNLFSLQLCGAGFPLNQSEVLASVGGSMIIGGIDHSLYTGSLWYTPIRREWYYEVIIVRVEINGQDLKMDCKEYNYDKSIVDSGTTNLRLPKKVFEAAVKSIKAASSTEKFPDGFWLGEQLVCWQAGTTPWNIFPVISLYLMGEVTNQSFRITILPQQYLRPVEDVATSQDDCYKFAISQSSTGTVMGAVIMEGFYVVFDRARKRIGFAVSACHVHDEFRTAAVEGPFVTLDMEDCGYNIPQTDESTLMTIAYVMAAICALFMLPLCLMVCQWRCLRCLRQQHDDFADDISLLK
row,SMILES,IC50 [µM]
1,CC1(c2cccc(NC(=O)c3nc4ccccc4s3)c2)CCSC(N)=N1 (stereo not drawn) [Compound 1108],< 100

# Same assay, conditions: fluorescence-quenched peptide substrate 18 nM, BACE-1 7.4 nM, 3 h at 30° C., pH5.0; read-out: IC50 value
row,IC50 [µM],SMILES
1,< 100,CC1(c2cccc(NC(=O)c3ccc(Cl)cc3F)c2)CCSC(N)=N1 (stereo not drawn) [Compound 378]
2,< 100,Cc1cccc(C(=O)Nc2cccc(C3(C)CCSC(N)=N3)c2)n1 (stereo not drawn) [Compound 348]
3,< 100,COCC(=O)Nc1cccc(C2(C)CCSC(N)=N2)c1 (stereo not drawn) [Compound 988]
4,< 100,CC1(c2cccc(OC(F)(F)C(=O)Nc3ccccc3)c2)CCSC(N)=N1 (stereo not drawn) [Compound 1257]
5,< 100,CC1(c2cccc(NC(=O)c3cc4ccccc4o3)c2)CCSC(N)=N1 (stereo not drawn) [Compound 303]
6,< 100,CC1(c2cccc(NC(=O)c3ccc(CO)cn3)c2)CCSC(N)=N1 (stereo not drawn) [Compound 80]
7,< 100,CC1(c2cccc(NC(=O)c3c(O)cccc3F)c2)CCSC(N)=N1 (stereo not drawn) [Compound 575]
8,< 100,COCCn1c(C(=O)Nc2cccc(C3(C)CCSC(N)=N3)c2)cc2ccccc21 (stereo not drawn) [Compound 77]
9,< 100,CC1(c2cccc(NC(=O)c3ccc4[nH]cnc4c3)c2)CCSC(N)=N1 (stereo not drawn) [Compound 1046]
10,< 100,CC1(c2cccc(/C=C/C(=O)Nc3ccc(F)cc3)c2)CCSC(N)=N1 (stereo not drawn) [Compound 415]
11,< 100,CC1(c2cccc(OCC(=O)Nc3ccccc3)c2)CCSC(N)=N1 (stereo not drawn) [Compound 200]
12,< 100,CC1(c2cccc(NC(=O)/C=C/c3ccccn3)c2)CCSC(N)=N1 (stereo not drawn) [Compound 1237]
13,< 100,CC1(c2cccc(C(=O)Nc3nc4ccccc4s3)c2)CCSC(N)=N1 (stereo not drawn) [Compound 708]
14,< 100,CC1(c2cccc(NC(=O)c3ccc(C#N)cc3F)c2)CCSC(N)=N1 (stereo not drawn) [Compound 517]
15,< 100,CC1(c2cccc(NC(=O)c3cccc(Br)c3)c2)CCSC(N)=N1 (stereo not drawn) [Compound 273]
16,< 100,CC1(c2cccc(NC(=O)c3ccc([N+](=O)[O-])cn3)c2)CCSC(N)=N1 (stereo not drawn) [Compound 730]
17,< 100,CC1(c2cccc(NC(=O)c3ccc(C#N)nc3)c2)CCSC(N)=N1 (stereo not drawn) [Compound 819]
18,< 100,COc1ccc(NC(=O)/C=C/c2cccc(C3(C)CCSC(N)=N3)c2)cc1 (stereo not drawn) [Compound 790]
19,< 100,CC1(c2cccc(NC(=O)C(=O)c3ccccc3)c2)CCSC(N)=N1 (stereo not drawn) [Compound 1272]
20,< 100,CC1(c2cccc(NC(=O)c3ccc(I)cc3)c2)CCSC(N)=N1 (stereo not drawn) [Compound 201]
21,< 100,CC(=O)Nc1ccc(C(=O)Nc2cccc(C3(C)CCSC(N)=N3)c2)nc1 (stereo not drawn) [Compound 792]
22,< 100,CC1(c2cccc(NC(=O)/C=C/c3ccccc3)c2)CCSC(N)=N1 (stereo not drawn) [Compound 1258]
23,< 100,CC1(c2cccc(NC(=O)c3ccc(Cl)cc3Cl)c2)CCSC(N)=N1 (stereo not drawn) [Compound 182]
24,< 100,CC1(c2cccc(NC(=O)c3ccc4ncsc4c3)c2)CCSC(N)=N1 (stereo not drawn) [Compound 228]
25,< 100,CC1(c2cccc(NCc3ccccc3)c2)CCSC(N)=N1 (stereo not drawn) [Compound 357]
26,< 100,CC1(c2cccc(NC(=O)c3ccc(-c4ccccn4)s3)c2)CCSC(N)=N1 (stereo not drawn) [Compound 1096]
27,< 100,CCOc1ccc(C(=O)Nc2cccc(C3(C)CCSC(N)=N3)c2)cc1 (stereo not drawn) [Compound 480]
28,< 100,CC1(c2cccc(NC(=O)CCc3ccccc3)c2)CCSC(N)=N1 (stereo not drawn) [Compound 808]

# The remaining lines, values behind:
row,SMILES,IC50 [µM]
1,CC1(c2cc(NC(=O)c3ncc(Cl)cc3N)ccc2F)CCSC(N)=N1 (stereo not drawn) [Compound 820],< 100
2,CCOc1ccc(C(=O)Nc2cccc(C3(C)CCSC(N)=N3)c2)nc1 (stereo not drawn) [Compound 516],< 100
3,Cc1ccc(NC(=O)COc2cccc(C3(C)CCSC(N)=N3)c2)cc1 (stereo not drawn) [Compound 746],< 100
4,CNc1nc(OC)cnc1C(=O)Nc1cccc(C2(C)CCSC(N)=N2)c1 (stereo not drawn) [Compound 353],< 100
5,COc1ccc(NC(=O)COc2cccc(C3(C)CCSC(N)=N3)c2)cc1F (stereo not drawn) [Compound 322],< 100
6,CC1(c2cccc(NC(=O)c3cnc(N4CCOCC4)cn3)c2)CCSC(N)=N1 (stereo not drawn) [Compound 1264],< 100
7,CC1(c2ccc(F)c(NC(=O)c3ccc(Cl)nc3)c2)CCSC(N)=N1 (stereo not drawn) [Compound 527],< 100
8,COc1ccc(NC(=O)C(F)(F)Oc2cccc(C3(C)CCSC(N)=N3)c2)cc1 (stereo not drawn) [Compound 944],< 100
9,CC1(c2ccc(C(=O)NCCc3ccc(Cl)cc3)s2)CCSC(N)=N1 (stereo not drawn) [Compound 442],< 100
10,CC1(c2cccc(C(=O)Nc3nccs3)c2)CCSC(N)=N1 (stereo not drawn) [Compound 1256],< 100
11,CC1(c2cccc(OCC(=O)Nc3ccc(OC(F)(F)F)cc3)c2)CCSC(N)=N1 (stereo not drawn) [Compound 326],< 100
12,CCOc1cc(Cl)cnc1C(=O)Nc1cccc(C2(C)CCSC(N)=N2)c1 (stereo not drawn) [Compound 532],< 100
13,CC1(c2ccc(F)c(NC(=O)c3ccccn3)c2)CCSC(N)=N1 (stereo not drawn) [Compound 637],< 100
14,CC1(c2cccc(NC(=O)c3cc([N+](=O)[O-])ccn3)c2)CCSC(N)=N1 (stereo not drawn) [Compound 770],< 100
15,Cn1c(C(=O)Nc2ccc(F)c(C3(C)CCSC(N)=N3)c2)cc2ccccc21 (stereo not drawn) [Compound 586],< 100
16,COC(=O)c1ccc(C(=O)Nc2cccc(C3(C)CCSC(N)=N3)c2)cc1 (stereo not drawn) [Compound 328],< 100
17,CC1(c2cc(NC(=O)c3ccc(Cl)cc3)ccc2F)CCSC(N)=N1 (stereo not drawn) [Compound 31],< 100
18,Cc1ccc(S(=O)(=O)Nc2cc(C3(C)CCSC(N)=N3)ccc2F)cc1 (stereo not drawn) [Compound 61],< 100
19,Cc1ccc(S(=O)(=O)Nc2cc(Br)cc(C3(C)CCSC(N)=N3)c2)cc1 (stereo not drawn) [Compound 1172],< 100
20,Cc1ccc(CCNc2cccc(C3(C)CCSC(N)=N3)c2)cc1 (stereo not drawn) [Compound 876],< 100
21,CC1(c2cccc(NC(=O)CCNC(=O)c3ccc(Cl)cc3)c2)CCSC(N)=N1 (stereo not drawn) [Compound 613],< 100
22,CC1(c2cc(NC(=O)c3ccc4cc[nH]c4c3)ccc2F)CCSC(N)=N1 (stereo not drawn) [Compound 560],< 100
23,CC1(c2cccc(NC(=O)c3cc(CCCO)on3)c2)CCSC(N)=N1 (stereo not drawn) [Compound 788],< 100

row,SMILES,IC50 [µM]
1,CC1(c2cccc(C(=O)Nc3ccc(Cl)cn3)c2)CCSC(N)=N1 (stereo not drawn) [Compound 542],< 100
2,CC1(c2cccc(NC(=O)c3ncc(Cl)cc3Cl)c2)CCSC(N)=N1 (stereo not drawn) [Compound 646],< 100
3,Cc1cc(Cl)cnc1C(=O)Nc1cccc(C2(C)CCSC(N)=N2)c1 (stereo not drawn) [Compound 802],< 100
4,CC1(c2ccc(C(=O)NCc3ccc(Cl)cc3)s2)CCSC(N)=N1 (stereo not drawn) [Compound 1148],< 100
5,CC(C)Nc1cnc(C(=O)Nc2cccc(C3(C)CCSC(N)=N3)c2)cn1 (stereo not drawn) [Compound 157],< 100
6,CC1(c2cccc(NC(=O)c3cnc(NCCO)cn3)c2)CCSC(N)=N1 (stereo not drawn) [Compound 1263],< 100
7,CC1(c2cc(NC(=O)c3cocn3)ccc2F)CCSC(N)=N1 (stereo not drawn) [Compound 97],< 100
8,CC1(c2cccc(NC(=O)c3ccc(NCc4ccccn4)cn3)c2)CCSC(N)=N1 (stereo not drawn) [Compound 797],< 100
9,Cn1cccc1C(=O)Nc1ccc(F)c(C2(C)CCSC(N)=N2)c1 (stereo not drawn) [Compound 497],< 100
10,CC1(c2cccc(NC(=S)Nc3ccc(Cl)cc3)c2)CCSC(N)=N1 (stereo not drawn) [Compound 406],< 100
11,CC1(c2cccc(OCC(=O)Nc3nccs3)c2)CCSC(N)=N1 (stereo not drawn) [Compound 824],< 100
12,CC1(c2cc(Br)cc(NC(=O)c3ccco3)c2)CCSC(N)=N1 (stereo not drawn) [Compound 370],< 100
13,CC1(c2cccc(NCc3cccnc3)c2)CCSC(N)=N1 (stereo not drawn) [Compound 389],< 100
14,CC1(c2cc(NC(=S)c3ccc(Cl)cc3)cc(S(C)(=O)=O)c2)CCSC(N)=N1 (stereo not drawn) [Compound 30],< 100
15,COc1cnc(C(=O)Nc2cccc(C3(C)CCSC(N)=N3)c2)c(N(C)C)n1 (stereo not drawn) [Compound 214],< 100
16,CC1(c2cccc(NC(=O)c3ccc4nonc4c3)c2)CCSC(N)=N1 (stereo not drawn) [Compound 652],< 100
17,CC1(c2cccc(OCC(=O)Nc3ccc(-n4cnc(Cl)c4Cl)cc3)c2)CCSC(N)=N1 (stereo not drawn) [Compound 106],< 100
18,CC1(c2cccc(NC(=O)C(=O)Nc3ccc(Cl)cn3)c2)CCSC(N)=N1 (stereo not drawn) [Compound 866],< 100
19,CC1(c2cccc(NC(=O)c3ccc(NCc4cccnc4)cn3)c2)CCSC(N)=N1 (stereo not drawn) [Compound 426],< 100
20,COc1cnc(C(=O)Nc2cccc(C3(C)CCSC(N)=N3)c2)c(C)c1 (stereo not drawn) [Compound 1211],< 100
21,CC1(c2cccc(OCC(=O)Nc3ccc4cnccc4c3)c2)CCSC(N)=N1 (stereo not drawn) [Compound 454],< 100
22,COc1cnc(C(=S)Nc2cccc(C3(C)CCSC(N)=N3)c2)cn1 (stereo not drawn) [Compound 1270],< 100

# Same assay, conditions: recombinant human BACE-1 protein, 3 h at 30° C., pH5.0; read-out: IC50 value
row,SMILES,IC50 [µM]
1,CC1(c2cc(Br)cc(NC(=O)c3ccccn3)c2)CCSC(N)=N1 (stereo not drawn) [Compound 1160],0.72
2,CC1(c2cccc(OCC(=O)Nc3ccc(F)cc3)c2)CCSC(N)=N1 (stereo not drawn) [Compound 1186],5.7
3,CC1(c2ccc(F)c(NC(=O)c3ccc4ccccc4n3)c2)CCSC(N)=N1 (stereo not drawn) [Compound 799],6.7
4,COCc1cc(NC(=O)c2ccc(OC(F)(F)F)cc2)cc(C2(C)CCSC(N)=N2)c1 (stereo not drawn) [Compound 664],3.64
5,CC1(c2cc(Cl)cc(NC(=O)c3nc4ccccc4s3)c2)CCSC(N)=N1 (stereo not drawn) [Compound 96],0.163
6,CC1(c2cccc(NCc3ccc(Cl)cc3)c2)CCSC(N)=N1 (stereo not drawn) [Compound 753],5.6
7,CC1(c2cccc(C=Cc3ccc(Cl)cn3)c2)CCSC(N)=N1 (stereo not drawn) [Compound 616],5.9
